Laboratory results from BindingDB's records for doi:10.1021/bi0488799 (Glaxosmithkline, 2004).

Assays:
Conditions in all cases: pH 5.5; 30 °C
[1] = biological target: T1, Dimer of Gag-Pol polyprotein [489-587,I539V] (Human immunodeficiency virus 1, UniProt P04585, I539V); experiment: Kinetic Competitive Displacement Assay
T1 construct: 489-587
Method: The method was a competitive displacement assay used to determine binding affinities of other inhibitors relative to that of GW0385. The inhibitor of unknown affinity was used to displace [3H]GW0385 from enzyme-bound [3H]GW0385 (E[3H]GW0385). From the concentration of E[3H]GW0385 at equilibrium, the concentrations of enzyme-bound and free inhibitors were calculated, and the ratio of the Ki value of the unknown to that of GW0385 was determined (Ki,unknown/Ki,GW0385).

[2] = biological target: T2, Dimer of Gag-Pol polyprotein [489-587,L499I,L508Q,K509R,E524D,M525I,S526N,M535I,I539V,I543V,I551V,L552P,A560V,V571A,L579M] (Human immunodeficiency virus 1, UniProt P04585, A560V/E524D/I539V/I543V/I551V/K509R/L499I/L508Q/L552P/L579M/M525I/M535I/S526N/V571A); experiment: Fluorometric Activity Assay
T2 construct: 489-587
Method: (§1) Enzymatic activity was determined with fluorogenic substrate in the presence and absence of inhibitor. The fluorescence increase due to hydrolysis of the substrate was monitored with an excitation filter of wavelength 340 nm and an emission filter of wavelength 420. Values for the inhibition constants (Ki) were determined by conventional steady-state kinetic techniques.

[3] = biological target: T3, Dimer of Gag-Pol polyprotein [489-587,M535I,L552P,A560V,V571F,I573V] (Human immunodeficiency virus 1, UniProt P04585, A560V/I573V/L552P/M535I/V571F); experiment: Fluorometric Activity Assay
T3 construct: 489-587
Method: as §1

[4] = biological target: T4, Dimer of Gag-Pol polyprotein [489-587] (Human immunodeficiency virus 1, UniProt P12497); experiment: Fluorometric Activity Assay
T4 construct: 489-587
Method: as §1

[5] = biological target: T2, Dimer of Gag-Pol polyprotein [489-587,L499I,L508Q,K509R,E524D,M525I,S526N,M535I,I539V,I543V,I551V,L552P,A560V,V571A,L579M]; experiment: GW0385 Assay
Method: (§2) The assay method employed kinetic determinations of values for k1 and k-1, from which value of inhibition constant (Ki ) was determined (k-1/k1). The k1 is calculated from spectrofluorometric data in the presence of saquinavir. The k-1 is calculated from the time course for displacement of [3H]GW0385 from E[3H]GW0385 by nonlabeled GW0385.

[6] = biological target: T1, Dimer of Gag-Pol polyprotein [489-587,I539V]; experiment: GW0385 Assay
Method: as §2

| Compound | Ki [1] [pM] | Ki [2] [pM] | Ki [3] [pM] | Ki [4] [pM] | Ki [5] [pM] | Ki [6] [pM] |
| --- | --- | --- | --- | --- | --- | --- |
| CC(C)CN(C[C@@H](O)[C@H](Cc1ccc(OCc2ccccn2)cc1)NC(=O)O[C@H]1CO[C@H]2OCC[C@H]21)S(=O)(=O)c1ccc2c(c1)OCO2 [(3R,3aS,6aR)-hexahydrofuro[2,3-b]furan-3-yl N-[(2S,3R)-4-[2H-1,3-benzodioxole-5-(2-methylpropyl)sulfonamido]-3-hydroxy-1-[4-(pyridin-2-ylmethoxy)phenyl]butan-2-yl]carbamate] | 2.6 | 1.7 | – | – | – | – |
| CC(C)CN(C[C@@H](O)[C@H](Cc1ccc(OCCc2cccs2)cc1)NC(=O)O[C@H]1CO[C@H]2OCC[C@H]21)S(=O)(=O)c1ccc2c(c1)OCO2 [(3R,3aS,6aR)-hexahydrofuro[2,3-b]furan-3-yl N-[(2S,3R)-4-[2H-1,3-benzodioxole-5-(2-methylpropyl)sulfonamido]-3-hydroxy-1-{4-[2-(thiophen-2-yl)ethoxy]phenyl}butan-2-yl]carbamate] | 3.9 | 2.4 | – | – | – | – |
| CNC(=O)OCCCC(C)(C)CN(C[C@@H](O)[C@H](Cc1ccccc1)NC(=O)O[C@H]1CO[C@H]2OCC[C@H]21)S(=O)(=O)c1ccc2c(c1)OCO2 [(3R,3aS,6aR)-hexahydrofuro[2,3-b]furan-3-yl N-[(2S,3R)-4-[2H-1,3-benzodioxole-5-({2,2-dimethyl-5-[(methylcarbamoyl)oxy]pentyl})sulfonamido]-3-hydroxy-1-phenylbutan-2-yl]carbamate] | 27 | 54.4 | 25 | – | – | – |
| CCOC(=O)NCCCCC(C)(C)CN(C[C@@H](O)[C@H](Cc1ccccc1)NC(=O)O[C@H]1CO[C@H]2OCC[C@H]21)S(=O)(=O)c1ccc2c(c1)OCO2 [(3R,3aS,6aR)-hexahydrofuro[2,3-b]furan-3-yl N-[(2S,3R)-4-[2H-1,3-benzodioxole-5-({6-[(ethoxycarbonyl)amino]-2,2-dimethylhexyl})sulfonamido]-3-hydroxy-1-phenylbutan-2-yl]carbamate] | 4.6 | 1.2 | 4.3 | – | – | – |
| CC(C)CN(C[C@@H](O)[C@H](Cc1ccccc1)NC(=O)O[C@H]1CCOC1)S(=O)(=O)c1ccc(N)cc1 [VX-478] | – | – | – | 57 | – | – |
| Cc1nc(COc2ccc(C[C@H](NC(=O)O[C@H]3CO[C@H]4OCC[C@H]43)[C@H](O)CN(CC(C)C)S(=O)(=O)c3ccc4c(c3)OCO4)cc2)cs1 [[3H]GW0385] | – | – | – | – | 3.4 | 2 |
